Measurements published in patent EP4248959A1, “PREPARATION FOR REDUCTION OF PATHOLOGICAL IRON OVERLOAD” (Dr. Franz Köhler Chemie GmbH, priority 2022, dated 2023).
Entries after “also recorded” stand apart in the source; their conditions may differ.

Tests used:
CHO-K1 cells = assay: In vitro micronucleus assay (cytokinesis-block, OECD 487, GLP) with and without S9 metabolic activation; assay type: cell-based; settings: for concentration-related increase in frequency of MN: Chi-square test for trend; for micronucleus frequency / MN formation compared with the concurrent negative control: with and without metabolic activation, Chi-square test with Yates' correction
Source text: The in vitro Micronucleus Assay (MNA) is a mutagenic test system for the detection of chemicals that induce the formation of small membrane-bound DNA fragments (micronuclei (MN)) in the cytoplasm of interphase cells. The MNA, used for regulatory purposes measures formation of chromosomal changes following DNA damage induced by the compounds under test, and is used to predict the genotoxic potential of pharmaceuticals, industrial chemicals, food additives and cosmetic ingredients.
MN originate from chromosome fragments or whole chromosomes that are not included in the main daughter nuclei during nuclear division. They reflect chromosome damage and may thus provide a marker of genotoxicity and even early-stage carcinogenesis. The most commonly used method in mammalian cells is the cytokinesis-block micronucleus (CBMN) assay. In the CBMN assay, MN are scored after a single cell division using binucleated cultured cells (accumulated using cytochalasin B) to eliminate the confounding effect of altered cell division kinetics on the MN index.
The formation of MN is a consequence of chromosomal breakage and/or spindle-fiber dysfunction induced by clastogens and/or aneuploidogens.
DMSO controls were run concurrently for each experiment.
Micronucleus frequency was analyzed in at least 2000 binucleate cells per concentration and control.
In order to assess genotoxic potential. […] Statistical analysis of the MN frequency and binucleate cells with MN was performed using the Chi-square test with Yates' correction. To examine the dose-response relationship in frequencies of the micronuclei Chi-square test for trend was performed.

rat = assay: Acute toxicology following intravenous administration of a single dose; assay type: in vivo
Method: 1. Acute toxicology of 2,3-dimethoxy-N-methylbenzhydroxamic acid (XIII) following intra venous administration of a single dose.
In the preliminary phase, 1 male and 1 female rat were dosed at 200 mg/kg and observed for a period of 7 days. […] A further group of 1 male and 1 female animals was dosed at a dose level of 300 mg/kg. […] Recovery occurred approximately 4 hours after dosing.
In the main phase of the study, 1 group of 5 male and 5 female animals was dosed at 300 mg/kg and observed for a period of 14 days. […] Recovery occurred by Day 3.

[1] = both, rat, in vivo, iv, 300 mg/kg
[2] = rat, single i.v. dose of 300 mg/kg body weight

O=P1(N(CCCl)CCCl)NCCCO1 (centres unmarked) [CP, cyclophosphamide, reference compound]
concentration-related increase in frequency of MN (CHO-K1 cells): increased | micronucleus frequency / MN formation compared with the concurrent negative control (CHO-K1 cells): significantly induced

COc1ccc(C(=O)N(C)O)cc1OC [LK 614, 3,4-dimethoxy-N-methylbenzhydroxamic acid]
dose-dependent genetic toxicity (summary) (CHO-K1 cells): did not produce dose-dependent genetic toxicity | genotoxicity (MNA test result) (CHO-K1 cells; +S9 short, -S9 short and -S9 extended treatment): no genotoxicity | concentration-related increase in frequency of MN (CHO-K1 cells): not observed; also recorded: no dose-related increase | micronucleus frequency / MN formation compared with the concurrent negative control (CHO-K1 cells): did not exhibit statistically significant increase; also recorded: None of tested concentrations of test item, LK 614, exhibits a statistically significant increase

COc1cccc(C(=O)N(C)O)c1OC [XIII, 2,3-dimethoxy-N-methylbenzhydroxamic acid]
recovery (rat; [1]): ≤ 3 days | recovery after dosing (rat; [1]): approximately 4 hours | mortality (rat; main phase, 5 male and 5 female rats, 300 mg/kg i.v. single dose, observed 14 days): No mortality occurred | mortality (rat; preliminary phase, 1 male and 1 female rat, 200 mg/kg i.v. single dose, observed 7 days): No mortality | necropsy examination (rat; rat, in vivo): No abnormalities | clinical signs (rat; rat, in vivo, iv, 200 mg/kg): no clinical signs | tolerability of dose level (rat; [2]): reasonably tolerated | toxic effect (overall conclusion) (rat; [2]): slight toxic effect
